# Laboratory results as given in patent US7833967B2, “Synthetic antimicrobial polypeptides” (priority 2003, dated 2010).
# Test system: E. coli TOP10
# Assay: Suicide expression system (SES) growth inhibition
# Assay type: cell-based
# Settings: Table 5; mixed-motif library, re-tested in the Bioscreen C
row,Substance,Growth inhibition (%)
1,223 (RRRPPRLPRPFPIRPPPRLPRPLPFRP; Synthetic antimicrobial peptide) [compound 223],90
2,224 (RRRPPRLPRPFPIRPPPRVPRPFPVRP; Synthetic antimicrobial peptide) [compound 224],93
3,225 (RRRPPRLPRPFPIRPPPRVPRPIPIRP; Synthetic antimicrobial peptide) [compound 225],97
4,226 (RRRPPRLPRPFPIRPPPRVPRPIPVRP; Synthetic antimicrobial peptide) [compound 226],94
5,227 (RRRPPRLPRPFPIRPPPRVPRPVPIRP; Synthetic antimicrobial peptide) [compound 227],94
6,228 (RRRPPRLPRPFPLRPPPRFPRPFPIRP; Synthetic antimicrobial peptide) [compound 228],96
7,229 (RRRPPRLPRPFPLRPPPRFPRPFPLRP; Synthetic antimicrobial peptide) [compound 229],95
8,230 (RRRPPRLPRPFPLRPPPRFPRPLPLRP; Synthetic antimicrobial peptide) [compound 230],94
9,231 (RRRPPRLPRPFPLRPPPRLPRPFPFRP; Synthetic antimicrobial peptide) [compound 231],98
10,232 (RRRPPRLPRPFPLRPPPRLPRPIPVRP; Synthetic antimicrobial peptide) [compound 232],92
11,233 (RRRPPRLPRPFPLRPPPRLPRPLPVRP; Synthetic antimicrobial peptide) [compound 233],91
12,234 (RRRPPRLPRPFPLRPPPRVPRPLPIRP; Synthetic antimicrobial peptide) [compound 234],93
13,235 (RRRPPRLPRPFPLRPPPRVPRPVPFRP; Synthetic antimicrobial peptide) [compound 235],94
14,236 (RRRPPRLPRPFPLRPPPRVPRPVPFRP; Synthetic antimicrobial peptide) [compound 236],91
15,237 (RRRPPRLPRPFPLRPPPRVPRPVPVRP; Synthetic antimicrobial peptide) [compound 237],96
16,238 (RRRPPRLPRPFPVRPPPRFPRPFPIRP; Synthetic antimicrobial peptide) [compound 238],95
17,239 (RRRPPRLPRPFPVRPPPRFPRPFPLRP; Synthetic antimicrobial peptide) [compound 239],99
18,240 (RRRPPRLPRPFPVRPPPRFPRPVPFRP; Synthetic antimicrobial peptide) [compound 240],91
19,241 (RRRPPRLPRPFPVRPPPRIPRPIPFRP; Synthetic antimicrobial peptide) [compound 241],96
20,242 (RRRPPRLPRPFPVRPPPRLPRPVPFRP; Synthetic antimicrobial peptide) [compound 242],90
21,243 (RRRPPRLPRPFPVRPPPRLPRPVPFRP; Synthetic antimicrobial peptide) [compound 243],91
22,244 (RRRPPRLPRPFPVRPPPRLPRPVPFRP; Synthetic antimicrobial peptide) [compound 244],90
23,245 (RRRPPRLPRPFPVRPPPRVPRPFPVRP; Synthetic antimicrobial peptide) [compound 245],95
24,246 (RRRPPRLPRPFPVRPPPRVPRPFPVRP; Synthetic antimicrobial peptide) [compound 246],95

row,Substance,Growth inhibition (%)
1,247 (RRRPPRLPRPFPVRPPPRVPRPLPFRP; Synthetic antimicrobial peptide) [compound 247],93
2,248 (RRRPPRLPRPFPVRPPPRVPRPVPIRP; Synthetic antimicrobial peptide) [compound 248],94
3,249 (RRRPPRLPRPFPVRPPPRVPRPVPIRP; Synthetic antimicrobial peptide) [compound 249],93
4,250 (RRRPPRLPRPIPFRPPPRIPRPIPVRP; Synthetic antimicrobial peptide) [compound 250],96
5,251 (RRRPPRLPRPIPFRPPPRIPRPLPFRP; Synthetic antimicrobial peptide) [compound 251],96
6,252 (RRRPPRLPRPIPFRPPPRIPRPVPVRP; Synthetic antimicrobial peptide) [compound 252],92
7,253 (RRRPPRLPRPIPFRPPPRLPRPIPIRP; Synthetic antimicrobial peptide) [compound 253],91
8,254 (RRRPPRLPRPIPFRPPPRVPRPFPIRP; Synthetic antimicrobial peptide) [compound 254],77
9,255 (RRRPPRLPRPIPIRPPPRFPRPVPFRP; Synthetic antimicrobial peptide) [compound 255],93
10,256 (RRRPPRLPRPIPLRPPPRVPRPIPIRP; Synthetic antimicrobial peptide) [compound 256],91
11,257 (RRRPPRLPRPIPVRPPPRFPRPIPFRP; Synthetic antimicrobial peptide) [compound 257],92
12,258 (RRRPPRLPRPIPVRPPPRFPRPIPFRP; Synthetic antimicrobial peptide) [compound 258],92
13,259 (RRRPPRLPRPIPVRPPPRFPRPIPVRP; Synthetic antimicrobial peptide) [compound 259],98
14,260 (RRRPPRLPRPIPVRPPPRIPRPIPVRP; Synthetic antimicrobial peptide) [compound 260],90
15,261 (RRRPPRLPRPIPVRPPPRIPRPVPFRP; Synthetic antimicrobial peptide) [compound 261],92
16,262 (RRRPPRLPRPIPVRPPPRLPRPVPLRP; Synthetic antimicrobial peptide) [compound 262],93
17,263 (RRRPPRLPRPIPVRPPPRVPRPIPLRP; Synthetic antimicrobial peptide) [compound 263],94
18,264 (RRRPPRLPRPLPFRPPPRFPRPVPVRP; Synthetic antimicrobial peptide) [compound 264],92
19,265 (RRRPPRLPRPLPFRPPPRLPRPFPVRP; Synthetic antimicrobial peptide) [compound 265],94
20,266 (RRRPPRLPRPLPFRPPPRLPRPVPVRP; Synthetic antimicrobial peptide) [compound 266],94
21,267 (RRRPPRLPRPLPFRPPPRVPRPFPIRP; Synthetic antimicrobial peptide) [compound 267],94
22,268 (RRRPPRLPRPLPFRPPPRVPRPVPLRP; Synthetic antimicrobial peptide) [compound 268],93
23,269 (RRRPPRLPRPLPFRPPPRVPRPVPVRP; Synthetic antimicrobial peptide) [compound 269],90
